The conditions of data set [1]: cited from earlier work.
For data set [2] the following is noted: variety of solvents, including water; cited from earlier work.
A short description of data set [3]: Solubility of silicon phthalocyanines. The class given is physicochemical. The conditions noted are these: prior to exposure to NIR light (FIG. 5).
Data set [4] in a line: IR700 fluorescence after NIR light exposure. Type of data set: physicochemical. The conditions noted are these: 0.5 μM in DMF or PBS, laser 2-16 J/cm^2. On the procedure:
IR700 (0.5 μM) was suspended in DMF or PBS and exposed to NIR light with a laser (690 nm+/−4) at 2, 4, 8 or 16 J/cm^2. The resulting solution was visualized (in an eppendorf tube) with fluorescence at 700 nm. Some samples were not exposed to NIR light.

Data set [5] deals with A431-luc-GFP cells. Kind of data set: In vivo PIT on mixed flank tumor, target cells. Particulars: repeated PIT. Details: species or system mouse. The protocol:
(§1) Four million A431-luc-GFP cells were injected subcutaneously in both (right and left symmetrically) flanks of the mice, for the monoculture tumor model. For the mixed tumor model, mixed cells of 4×10^6 A431-luc-GFP cells and 4×10^5 Balb/3T3-RFP cells (100:10) were injected subcutaneously in the both (right and left symmetrically) flanks.
(§2) Controls included (1) only NIR light exposure at 50 J/cm2 on day 1 and 100 J/cm2 on day 2 to the right tumor; (2) no treatment for the left tumor. These therapies were performed only once at day 7 after cell implantation. Mice were monitored daily, and serial image analysis was performed.
(§3) In vivo fluorescence images were obtained with a Pearl Imager (LI-COR Bioscience) for detecting IR700 fluorescence, and a Maestro Imager (CRi, Woburn, MA, USA) for GFP/RFP. […] The spectral fluorescence images consist of autofluorescence spectra and the spectra from GFP/RFP (tumor), which were then unmixed, based on the characteristic spectral pattern of GFP, using Maestro software (CRi). Regions of interest (ROIs) were manually drawn either on the flank tumor or over the abdominal region as appropriate to the model and fluorescence intensity was measured.
(§4) For BLI, D-luciferin (15 mg/mL, 200 μL) was injected intraperitoneally and the mice were analyzed with a Photon Imager for luciferase activity at day 6. […]

Data set [6] deals with A431-luc-GFP cells. Description: PIT on mixed 2D cell culture, target cells. The conditions noted are these: mixed 2D culture, repeated PIT 2 J/cm2. Type of data set: cell-based. The protocol: (§5) Two hundred thousand A431-luc-GFP cells were seeded into 24 well plates or twenty million cells were seeded onto a 10 cm dish and incubated for 24 hr. Medium was replaced with fresh culture medium containing 10 μg/mL of tra-IR700 which was incubated for 6 hr at 37° C. After washing with PBS, phenol red free culture medium was added. Then, cells were irradiated with a NIR laser, which emits light at 670 to 710 nm wavelength (L690-66-60; Marubeni America Co., Santa Clara, CA, USA). The actual power density (mW/cm2) was measured with an optical power meter (PM 100, Thorlabs, Newton, NJ, USA).
(§6) The cytotoxic effects of PIT with APC were determined by the luciferase activity and flow cytometric PI staining or GFP. For luciferase activity, 150 μg/mL of D-luciferin-containing media (Gold Biotechnology, St Louis, MO, USA) was administered to PBS-washed cells 1 hr after PIT, and analyzed on a bioluminescence imaging (BLI) system (Photon Imager; Biospace Lab, Paris, France). For the flow cytometric assay, cells were trypsinized 1 hr after treatment and washed with PBS. […]
(§7) Two hundred thousand cells were seeded on cover-glass-bottomed dishes and incubated for 12 hr. […] The GFP/RFP intensity was evaluated with total pixels with the same threshold in the same field of each spheroid20. […] Fluorescence from treated cells was also measured using a flow cytometer (FACS Calibur).

In data set [7] the test system is A431-luc-GFP 3D spheroids. The class given is cell-based. On the procedure:
(§8) Spheroids were generated by the hanging drop method in which five thousand cells were suspended in 50 μL medium and then were dispensed into 96 well plates (3D Biomatrix Inc, Ann Arbor, MI, USA) following manufacturer's instructions (Sato et al., Mol. Oncol. 8, 620-632, 2014). Mixed spheroids were made with 5,000 cells of Balb/3T3-RFP and 500 cells of A431-luc-GFP (100:10)). After observation or treatment, spheroids were again incubated with the hanging drop plates containing new media. The volume of the spheroids was calculated with the formula: spheroid volume=4/3 π×radius^3
(§9) To detect the antigen specific localization of IR700 conjugates, fluorescence microscopy was performed (IX61 or IX81; Olympus America, Melville, NY, USA). Ten thousand cells were seeded on cover-glass-bottomed dishes and incubated for 24 hr. APC was then added to the culture medium at 10 μg/mL and incubated at 37° C. for 6 hr. The cells were then washed with PBS; Propidium Iodide (PI)(1:2000)(Life Technologies) and Cytox Blue (1:500)(Life Technologies), were used to detect dead cells. These were added to the media 30 min before observation. The cells were then exposed to NIR light and serial images were obtained. The filter was set to detect IR700 fluorescence with a 590-650 nm excitation filter, and a 665-740 nm band pass emission filter.
3D reconstructions of the spheroids were obtained with a confocal laser microscope (LSM5 meta, Carl Zeiss, Jena, Germany) after incubation for 30 min with Hoechst 33342 (1:500)(Life Technologies). Sections of spheroids were first fixed with 3.7% formaldehyde in PBS for 10 min at room temperature followed by embedding with OCT (SAKURA, Tokyo, Japan). Then, they were frozen at −80° C., and sliced at 10 μm with a cryotome (LEICA CM3050 S, Leica microsystems, Wetzlar, Germany). Analysis of the images was performed with ImageJ software (http://rsb.info.nih.gov/ij/).

Data set [8] is classed as physicochemical. The protocol:
The resulting solution was run on a 4-20% polyacrylamide gel, and stained with Comassie blue and visualized with light or fluorescence at 700 nm. Some samples were not exposed to NIR light. […] Some examples contained NaN3 (sodium azide), a reactive oxygen scavenger, or no oxygen (using an argon gas flash for 20 minutes). The resulting solution was run on a […] gel, and stained with Comassie blue and visualized with light or fluorescence at 700 nm. Some samples were not exposed to NIR light. […] Some examples contained excess oxygen (using 100% oxygen gas flash for 20 minutes). The resulting solution was run on a 4-20% SDS-PAGE gel, and stained with Comassie blue and visualized with light or fluorescence at 700 nm. Some samples were not exposed to NIR light.

In data set [9] the test system is A431-luc-GFP cells. Description: PIT on mixed 3D spheroid, target cells. The conditions noted are these: repeated PIT 2 J/cm2. The class given is cell-based. The protocol:
as §8, §9

For another data set, the system named is A431-luc-GFP flank tumor. Description: In vivo PIT on flank tumor. Details: species or system mouse. The conditions noted are these: 100 μg, repeated PIT 50 J/cm2 day 1 and 100 J/cm2 day 2. On the procedure: All in vivo procedures were conducted in compliance with the Guide for the Care and Use of Laboratory Animal Resources (1996), US National Research Council, and approved by the local Animal Care and Use Committee. Six- to eight-week-old female homozygote athymic nude mice were purchased from Charles River (NCI-Frederick). During procedures, mice were anesthetized with isoflurane.
Four million A431-luc-GFP cells were injected subcutaneously in both (right and left symmetrically) flanks of the mice, for the monoculture tumor model. […]
Controls included (1) only NIR light exposure at 50 J/cm2 on day 1 and 100 J/cm2 on day 2 to the right tumor; (2) no treatment for the left tumor. […] Mice were monitored daily, and serial image analysis was performed.
In vivo fluorescence images were obtained with a Pearl Imager (LI-COR Bioscience) for detecting IR700 fluorescence, and a Maestro Imager (CRi, Woburn, MA, USA) for GFP/RFP. […] The spectral fluorescence images consist of autofluorescence spectra and the spectra from GFP/RFP (tumor), which were then unmixed, based on the characteristic spectral pattern of GFP, using Maestro software (CRi). Regions of interest (ROIs) were manually drawn either on the flank tumor or over the abdominal region as appropriate to the model and fluorescence intensity was measured. […]

For data set [10], the system named is Balb/3T3-RFP cells. Kind of data set: Flow cytometry binding to Balb/3T3-RFP cells. The conditions noted are these: non-EGFR expressing cells. The protocol: (§10) Fluorescence arising from the cells after incubation with APC agents was measured using a flow cytometer (FACS Calibur, BD BioSciences, San Jose, CA, USA) and CellQuest software (BD BioSciences). Cells (1×10^5) were incubated with each APC for 6 hr at 37° C.
For orientation: Flow cytometry measures light scatter and fluorescence of single cells or particles in a stream.

Data set [11] relates to Balb/3T3-RFP cells. Description: PIT on mixed 2D cell culture, non-target cells. Particulars: mixed 2D culture, repeated PIT 2 J/cm2. The class given is cell-based. The protocol:
as §5, §6, §7

The test system of data set [12] is Balb/3T3-RFP cells. Description: In vivo PIT on mixed flank tumor, non-target cells. More on the design: species or system mouse. The conditions noted are these: repeated PIT. The protocol:
as §1, §2, §3, §4

The test system of data set [13] is A431-luc-GFP cells. Description: Flow cytometry binding to A431-luc-GFP cells with blocking. Particulars: 6 hr incubation at 37° C., blocking study. The protocol: as §10
Data set [14] deals with Balb/3T3-RFP cells. Description: PIT on 3D spheroids, non-target cells. The class given is cell-based. The protocol:
as §8, §9

The test system of data set [15] is A431-luc-GFP cells. Kind of data set: In vitro PIT on 2D culture (PI staining, luciferase activity, GFP fluorescence). The class given is cell-based. On the procedure:
as §9, §5
The cytotoxic effects of PIT with APC were determined by the luciferase activity and flow cytometric PI staining or GFP. For luciferase activity, 150 μg/mL of D-luciferin-containing media (Gold Biotechnology, St Louis, MO, USA) was administered to PBS-washed cells 1 hr after PIT, and analyzed on a bioluminescence imaging (BLI) system (Photon Imager; Biospace Lab, Paris, France). […]
as §7

Like-named read-outs stand apart in the source and are kept apart here.

These results are taken from patent publication US11781955B2, “Photo-controlled removal of targets in vitro and in vivo” (The United States of America, as represented by the …, priority 2014, dated 2023).

On to `Oc1cccc(-c2c3nc(c(-c4cccc(O)c4)c4ccc([nH]4)c(-c4cccc(O)c4)c4nc(c(-c5cccc(O)c5)c5ccc2[nH]5)CC4)C=C3)c1` [Foscan®, meta-tetrahydroxyphenylchlorin], for which the extinction coefficient in data set [1] (at 652 nm) was 22000 M⁻¹ cm⁻¹.
As to `C=Cc1c(C)c2cc3nc(c(CC(=O)N[C@@H](CC(=O)[O-])C(=O)[O-])c4[nH]c(cc5nc(cc1[nH]2)C(C)=C5CC)c(C)c4C(=O)[O-])[C@@H](CCC(=O)[O-])[C@@H]3C.[Na+].[Na+].[Na+].[Na+]` [NPe6/Laserphyrin®, mono-L-aspartylchlorin e6], the extinction coefficient in data set [1] (at 654 nm) was 40000 M⁻¹ cm⁻¹.
Regarding `O[Si]1(O)n2c3c4ccccc4c2N=C2N=C(N=c4c5ccccc5c(n41)=NC1=NC(=N3)c3ccccc31)c1ccccc12` [silicon phthalocyanine dihydroxide], in data set [2], the solubility result was “no measurable solubility”.
For the compound IRDye® 700DX [IR700], in [3], the solubility result was “can dissolve in different aqueous and organic solvents”. The extinction coefficient in data set [1] (at the absorption maximum of 689 nm) was 210000 M⁻¹ cm⁻¹. The “fluorescence after NIR exposure (photobleaching)” value in [4] was “still fluorescent even after exposure to strong NIR light”.
For the compound “Pan-IR700: Panitumumab (Vectibix), anti-human EGFR IgG2 MAb, conjugated to IR700; about 3 IR700 per antibody”, the “target cell elimination from mixed tumors” value with A431-luc-GFP cells [5] is reported as “complete elimination of target-expressing cells from mixed tumors in vivo”. Further, the target cell elimination entry was “complete target cell elimination” in the data set with A431-luc-GFP cells [6] and “complete target cell elimination from the mixed 3D cell culture” with A431-luc-GFP cells [9]. Further, the “permeation into spheroids (IR700 fluorescence)” value in [7] was “gradually permeated into spheroids from the perimeter”. Besides, the “eradication of cells in 3D spheroid” value in data set [7] (daily repeated PIT) is “complete eradication of A431-luc-GFP cells within spheroids”. Moreover, in data set [7] (single PIT, 2 J/cm2), the “cell death in 3D spheroid after PIT” value is “necrotic cell death in the APC-bound layer of A431-luc-GFP cells”. Also, the “spheroid size after PIT” value in data set [7] (target 3D spheroid) was “clearly decreased in size”. Moreover, the “degradation by NIR in excess oxygen” value in data set [8] is on record as “less degradation”. Moreover, the “oxygen dependence of cleavage by NIR” value in data set [8] (8 or 16 J/cm^2, no treatment, NaN3 or no oxygen (argon)) is given as “oxygen independent”. Moreover, the “cleavage of conjugate after NIR light” value in [8] (PBS, LED or laser 690 nm, 2-16 J/cm^2) is reported as “broken down or cleaved after exposure to NIR light”. Also, in the data set on A431-luc-GFP flank tumor, the “GFP signal and luciferase activity of tumor” value is “disappearance of both GFP signal and luciferase activity”. Besides, the “binding to cells (FACS)” value is on record as “no binding” with Balb/3T3-RFP cells [10] and “Specific binding” with A431-luc-GFP cells [13]. Further, the “effect on non-target cells” value is reported as “without affecting the non-target cell growth” in the data set with Balb/3T3-RFP cells [11] and “without damaging non-target cells” in the data set on Balb/3T3-RFP cells [14] (mixed 3D spheroid, repeated PIT 2 J/cm2). For the same compound, the “damage to non-target cells in mixed tumors” value in the data set on Balb/3T3-RFP cells [12] is reported as “minimal damage to non-target cells”. In the data set with Balb/3T3-RFP cells [14] (spheroid of non-target cells only), the “change of non-target-expressing 3D spheroid with PIT” value is given as “no remarkable change”. Further, in the data set on A431-luc-GFP cells [15] (2D culture, 1 hr after PIT), the “bioluminescence (BLI) and GFP fluorescence intensity after PIT” value is “decrease in bioluminescence (BLI) and GFP fluorescence intensity also in a light-dose dependent manner”. Besides, in the data set on A431-luc-GFP cells [15] (2D culture, NIR light dose series), the “cell killing (dead PI staining)” value is “killed in a light-dose dependent manner”. For the same compound, in the data set with A431-luc-GFP cells [15] (6 hr incubation, NIR 2 J/cm2, 1 hr after PIT), the “cell death by microscopy” value is “Necrotic cell death was observed”.
For Photofrin®, the extinction coefficient in data set [1] (at 630 nm) is 1200 M⁻¹ cm⁻¹.
